# Results reported in patent publication US6376501B1, “Type 2 helper T cell-selective immune response suppressors” (Japan Energy Corporation, priority 2000, dated 2002).
# Key:
# [1] = test system: interleukin-4 (IL-4); experiment: IL-4 production from OVA-sensitized mouse spleen cells induced by antigen stimulation (ELISA); assay type: cell-based; settings: OVA-stimulated sensitized spleen cells, 3 days culture supernatant
# Method: (§1) 1) Preparation of Sensitized Mouse Spleen Cells
# (§2) Seven week-old male BALB/c mice were immunized with 4 mg of aluminium hydroxide gel (100 μl) adsorbing 10 μg of ovalbumin (OVA) by intraperitoneal administration. After 14 days, the mice received a booster injection of the same composition. Seven days after the booster administration, the spleen was removed and suspended in RPMI-1640 medium containing inactivated bovine fetal serum (10% v/v), 2-mercaptoethanol (50 μM), penicillin G (100 U/ml) and streptomycin (100 μg/ml) to prepare a cell suspension.
# (§3) 2) Cytokine Production Induced by Antigen Stimulation
# (§4) To the spleen cell suspension (5×10^6 cells/200 μl/well), 1/1000 volume of dimethyl sulfoxide solution dissolving OVA (0.5 mg/ml) and a test compound at a specific concentration was added. Then, the cells were cultured at 37° C. under 5% CO2. After 3 days, cytokines in the culture supernatant were determined by ELISA. Specifically, as a Th1 type cytokine, interferon-γ, (IFN-γ) was determined using Mouse IFN-γ ELISA Kit (Amersham). As Th2 type cytokines, interleukin-4 (IL-4) and interleukin-5 (IL-5) were determined with Mouse IL-4 ELISA Kit (Amersham) and Mouse IL-5 ELISA minikit (Endogen), respectively.
# [2] = test system: BALB/c mice; experiment: Inhibitory effect on eosinophilic infiltration into the abdominal cavity of OVA-immunized mice; assay type: in vivo; settings: for Ratio of Infiltrating Eosinophiles: cells collected two days after; for Inhibition: eosinophile ratio vs control
# Method: Eight week-old male BALB/c mice were immunized with 1.6 mg of aluminium hydroxide gel (200 μl) adsorbing 100 μg of OVA by subcutaneous administration in the back. After 7 days, the mice received a booster injection of the same composition. Seven days after the booster administration, 10 μg of OVA in 200 μl of physiological saline was administered to the mice intraperitoneally. Two days after the intraperitoneal administration, abdominal cavity-infiltrating cells were collected with physiological saline. The total cell count and the eosinophile count in the collected cells were calculated by staining with Türk's solution and Hinkerman's solution, respectively. The test compound was administered orally 2 hours before the OVA intraperitoneal administration.
# [3] = test system: interferon-γ (IFN-γ); experiment: IFN-γ production from OVA-sensitized mouse spleen cells induced by antigen stimulation (ELISA); assay type: cell-based; settings: OVA-stimulated sensitized spleen cells, 3 days culture supernatant
# Method: as §1, §2, §3, §4
# [4] = test system: interleukin-5 (IL-5); experiment: IL-5 production from OVA-sensitized mouse spleen cells induced by antigen stimulation (ELISA); assay type: cell-based; settings: OVA-stimulated sensitized spleen cells, 3 days culture supernatant
# Method: as §1, §2, §3, §4
# [5] = test system: BALB/c mice; experiment: Mouse FITC-induced contact dermatitis model (auricule swelling), ointment; assay type: in vivo; settings: 10 μl on left auricule 2 hr before induction, 24 hr after induction
# Method: As a control, Imiquimode (R-837; 4-amino-1-isobutyl-1H-imidazo[4,5-c]quinoline) disclosed in EP 145,340 A was used for comparison. Further, a steroid-type drug Rinderon™ ointment (Shionogi & Co.; 0.12% betamethasone valerate ointment) was used for reference.
# The test compound was dissolved in an ointment base (PEG400:PEG4000=7:3) heated to about 80° C. to give a concentration of 1 mg/ml or 10 mg/ml, and then cooled to solid at room temperature to thereby prepare 0.1 or 1% macrogol ointment. Imiquimode (R-837), the control, was also formulated into 0.1 and 1% macrogol ointments.
# Seven week-old male BALB/c mice were sensitized by applying 0.2 ml of 0.5% FITC in acetone/dibutyl phthalate (1:1) to the abdomen sheared in advance. Seven days after the sensitization, inflammation was induced by applying 10 μl of 0.5% FITC in acetone/dibutyl phthalate (1:1) to each side of the left auricule (total 20 μl). Before the induction and 24 hr after the induction, the thickness of the auricule was measured with a micrometer. The difference between the two values was taken as the swelling degree. The macrogoal ointment containing the test compound and Rinderon™ ointment (0.12% betamethasonevalerate) were applied to each side of the left auricule in an amount of 5 μl (total 10 μl) 2 hr before the induction. Mice in the placebo group were treated with the macrogol ointment base (PEG400:PEG4000=7:3).
# The inflammation inhibitory effect of the ointment of the invention was calculated as an inhibition ratio relative to the swelling degree in the placebo group which was taken as 100%. For example, the inhibition ratios in the groups treated with ointments containing 0.1% and 1% of the compound of Example 59, i.e. 2-butyl-9-(p-fluorobenzyl)-8-hydroxyadenine were 67% and 33%, respectively.
# [6] = 30 mg/kg orally 2 hours before OVA i.p.
# [7] = 3 mg/kg orally 2 hours before OVA i.p.
SMILES,IL-4 ([1]; test compound 0.1 μM) [pg/mL],IL-4 ([1]; test compound 1 μM) [pg/mL],IL-4 ([1]; test compound 10 μM) [pg/mL],IFN-γ ([3]; test compound 0.1 μM) [ng/mL],IFN-γ ([3]; test compound 1 μM) [ng/mL],IFN-γ ([3]; test compound 10 μM) [ng/mL],IL-5 ([4]; test compound 0.1 μM),IL-5 ([4]; test compound 1 μM),IL-5 ([4]; test compound 10 μM) [pg/mL],melting point [°C],also measured
"CCCCCc1nc(N)c2nc(O)n(Cc3ccccc3)c2n1 [Example 20, 9-Benzyl-8-Hydroxy-2-Pentyladenine]",20,<7.8,<7.8,135,193,219,"1,667 pg/ml",670 pg/mL,524,,"IL-4 ([1]; test compound 0.01 μM): 208 pg/mL; Ratio of Infiltrating Eosinophiles [2, 6]: 6.94%; Inhibition [2, 6]: 46.2%; IFN-γ ([3]; test compound 0.01 μM): 25 ng/mL; IL-5 ([4]; test compound 0.01 μM): 3,792 pg/ml"
"CC(=O)Oc1nc2c(N)ncnc2n1Cc1ccccc1 [Example 11, 9-Benzyl-8-Acetoxyadenine]",,,,,,,,,,189 to 191,
"Nc1nc(C2CCCCC2)nc2c1nc(O)n2Cc1ccccc1 [Example 21, 9-Benzyl-2-Cyclohexyl-8-Hydroxyadenine]",192,11,<7.8,28,158,170,"4,103 pg/ml","1,291 pg/ml",715,,
"Cc1nc(N)c2nc(O)n(Cc3cccc(Cl)c3)c2n1 [Example 18, 9-(m-Chlorobenzyl)-8-Hydroxy-2-Methyladenine]",254,<7.8,<7.8,26,63,181,"4,150 pg/ml","2,321 pg/ml",710,,
"CC(C)Cn1cnc2c(N)nc3ccccc3c21 [Example R-837, 4-amino-1-isobutyl-1H-imidazo[4,5-c]quinoline, reference compound]",,,,,,,,,,,inhibition ratio relative to the swelling degree in the placebo group ([5]; 0.1% macrogol ointment): 50%; inhibition ratio relative to the swelling degree in the placebo group ([5]; 1% macrogol ointment): 67%
"CCCCCCCC(=O)Oc1nc2c(N)ncnc2n1Cc1ccccc1 [Example 15, 9-Benzyl-8-Octanoyloxyadenine]",,,,,,,,,,248 to 250,
"C[C@@H]1C[C@H]2[C@@H]3CCC4=CC(=O)C=C[C@]4(C)[C@@]3(F)[C@@H](O)C[C@]2(C)[C@@]1(O)C(=O)CO [Dexamethasone, reference compound]",,,,,,,,,,,"Ratio of Infiltrating Eosinophiles [2, 7]: 10.27%; Inhibition [2, 7]: 18.9%"
"Nc1ncnc2c1nc(O)n2Cc1ccc(F)cc1 [Example 4, 9-(4-Fluorobenzyl)-8-Hydroxyadenine]",,,,,,,,,,270 to 272,
"Nc1ncnc2c1nc(O)n2Cc1ccccc1 [Example 1, 9-Benzyl-8-Hydroxyadenine]",,,,,,,,,,278 to 280,
"CCCCc1nc(N)c2nc(O)n(Cc3ccc(F)cc3)c2n1 [Example 59, 2-Butyl-9-(p-Fluorobenzyl)-8-Hydroxyadenine]",,,,,,,,,,,inhibition ratio relative to the swelling degree in the placebo group ([5]; 0.1% macrogol ointment): 67%; inhibition ratio relative to the swelling degree in the placebo group ([5]; 1% macrogol ointment): 33%
"Nc1ncnc2c1nc(OC(=O)c1ccccc1)n2Cc1ccccc1 [Example 12, 9-Benzyl-8-Benzoyloxyadenine]",,,,,,,,,,227 to 229,
"Cc1nc(N)c2nc(O)n(Cc3ccccc3)c2n1 [Example 17, 9-Benzyl-8-Hydroxy-2-Methyladenine]",,,,,,,,,,,"Ratio of Infiltrating Eosinophiles [2, 6]: 4.70%; Inhibition [2, 6]: 62.9%"
"CC(C)c1nc(N)c2nc(O)n(Cc3ccccc3)c2n1 [Example 45, 9-Benzyl-8-Hydroxy-2-Isopropyladenine]",86,<7.8,<7.8,46,161,187,"2,881 pg/ml",699 pg/mL,563,,
"Nc1nc(Cc2ccccc2)nc2c1nc(O)n2Cc1ccccc1 [Example 24, 2,9-Dibenzyl-8-Hydroxyadenine]",195,<7.8,<7.8,44,199,244,"3,670 pg/ml","1,130 pg/ml",345,,
"Cc1nc(N)c2nc(S)n(Cc3ccccc3)c2n1 [Example 19, 9-Benzyl-8-Mercapto-2-Methyladenine]",296,29,<7.8,16,50,139,"4,482 pg/ml","1,782 pg/ml",643,,
"CCCCn1c(O)nc2c(N)ncnc21 [Example 3, 9-Butyl-8-Hydroxyadenine]",,,,,,,,,,222 to 224,
"CC(C)(C)OC(=O)Oc1nc2c(N)ncnc2n1Cc1ccccc1 [Example 10, 9-Benzyl-8-tert-Butyloxycarbonyloxyadenine]",,,,,,,,,,287 to 289,
